The text below walks through data of patent US20070123580A1, “Combination of histone deacetylase inhibitors with chemotherapeutic agents” (priority 2003, published 2007).

The structures appear in SMILES notation. Entries after “also recorded” stand apart in the source; their conditions may differ.

In one data set the test system is p21 promoter. Kind of data set: Transcriptional activation of the p21 promoter. In kind it is cell-based. As to conditions: single agent; sub-micromolar concentrations.
Data set [1] concerns normal dermal fibroblasts. Kind of data set: Effect on normal dermal fibroblasts. In kind it is cell-based. As to conditions: single agent; compared with HCT116 cells.
In data set [2] the test system is acetylated histone H3 and H4. Description: Acetylated histone levels in HCT116 human tumor xenografts. As to conditions: in vivo, HCT116 human tumor xenografts from athymic mice. The text has this: The compound also increases acetylated histone H3 and H4 levels in vivo, in HCT116 human tumor xenografts from athymic mice. In this example, the effects of combining N-hydroxy-3-[4-[[(2-hydroxyethyl)[2-(1H-indol-3-yl)ethyl]-amino]methyl]phenyl]-2E-2-propenamide with standard therapeutics or with other experimental drugs on monolayer proliferation of tumor cell lines are investigated.
In general terms: A xenograft is tissue or cells of one species grown in another, often human tumour cells in immunodeficient mice.

Another data set deals with cell growth. Description: Inhibition of cell growth in vitro. Conditions: single agent. The data set is classed as cell-based.
For data set [3], the system named is HCT116 colon carcinoma xenograft. Description: HCT116 colon carcinoma xenograft model. In kind it is in vivo, athymic mice. As to conditions: single daily intravenous doses 10 to 100 mg/kg.
The test system of the next data set is tumor cell lines. Description: MTS monolayer proliferation assay, combination with 5-azacytidine (cell line not stated). The data set is classed as cell-based. As to conditions: in combination with 5-azacytidine. An excerpt:
(§1) MTS (which is 3-(4,5 Dimethylthiazol-2-yl)-5-(3-carboxyphenyl)-2-(4-sulfophenyl)-2H-tetrazolium, inner salt) assays are used to assess the antiproliferative effects of the drug combinations. The HCT116 and MDA-MB-435P tumor cell lines, previously characterized as sensitive to HDA inhibitors, are chosen for these experiments along with clinically relevant chemotherapeutic drugs. A commercial program, “CalcuSyn”, is employed to determine whether the combined effects are synergistic, antagonistic or additive.
(§2) Two cell lines, the HCT116 human colon carcinoma cells and MDA-MB-435P, a hormone independent breast carcinoma cell line, are chosen based on their sensitivity to HDAI. Chemotherapeutic agents are paired with the cell lines based on their clinical relevance. The compounds tested in combination with N-hydroxy-3-[4-[[(2-hydroxyethyl)[2-(1H-indol-3-yl)ethyl]-amino]methyl]phenyl]-2E-2-propenamide include adriamycin which is clinically used in the treatment of breast cancer, 5-fluoruracil (5-FU), and camptothecin, used clinically for colon cancer. Due to the reported cross-talk between histone deacetylases and DNA methyl transferases, 5-azacytidine, a DNA methyltransferase inhibitor, is also tested.
Experiments are done using five-point or six-point drug titrations in 96-well tissue culture plates, with the top row left empty. HCT116 and MDA-MB-435P cells are suspended in complete media at a density of 3.6×10^3 and 2.1×10^4 cell/ml, respectively, and 190 μl are added per well. Complete medium (200 μl) is added to the top row. […] The plate is incubated at 37° C. for 4 hours and the OD is measured on a Molecular Devices Thermomax at 490 nm using the Softmax program. […]
(§3) The plates are incubated at 37° C. for 72 hours from seeding. The MTS solution is added (as for the T0 plate) and read four hours later. […]
Using the CalcuSyn program, the Combination Index (CI) is determined by the isobologram equation CI=(D)1/(Dx)1+(D)2/(Dx)2. […] For each compound the % growth values at each dose as determined in the MTS assay is used. […]
(Tetrazolium assays rely on reduction of a dye to a coloured formazan, in cell work by metabolically active cells.)

The next data set deals with MDA-MB-435P cells. Kind of data set: MTS monolayer proliferation assay, drug combinations analysed with CalcuSyn. As to conditions: in combination with adriamycin. In kind it is cell-based, human.
From the text: as §1, §2
Human breast carcinoma cells, MDA-MB-435P are cultured as previously described in the reference above. Cell proliferation is measured using an adaptation of published procedures essentially as described, in Zhang R D, Fidler I J, Price J E, “Relative malignant potential of human breast carcinoma cell lines established from pleural effusions and a brain metastasis”, Invasion-Metastasis 1991; 11 :204-15.
Experiments are done using five-point or six-point drug titrations in 96-well tissue culture plates, with the top row left empty. HCT116 and MDA-MB-435P cells are suspended in complete media at a density of 3.6×10^3 and 2.1×10^4 cell/ml, respectively, and 190 μl are added per well. Complete medium (200 μl) is added to the top row. 24 hours later, after the cells have attached to the bottom of the plate, 10 μl of MTS solution are added to one of the plates to determine the activity at the time of compound addition (T0). The plate is incubated at 37° C. for 4 hours and the OD is measured on a Molecular Devices Thermomax at 490 nm using the Softmax program. The T0 plate serves as a reference for initial activity at the beginning of the experiment. Compound addition begins 24 hours after seeding, the same time as the T0 determination. […] One cell line is tested with four compounds or combinations per plate. 10 microliters of each of the six dilutions are added in triplicate and complete medium is added to the bottom row. The compounds are added to the plates singly or in combination with N-hydroxy-3-[4-[[(2-hydroxyethyl)[2-(1H-indol-3-yl)ethyl]-amino]methyl]phenyl]-2E-2-propenamide. In pretreated combinations, the drugs are added simultaneously, 24 hr prior, or 24 hr after N-hydroxy-3-[4-[[(2-hydroxyethyl)[2-(1H-indol-3-yl)ethyl]-amino]methyl]phenyl]-2E-2-propenamide. As controls for pretreatment, new dilutions are added to untreated cells singly or in combination 48 hours after seeding.
The plates are incubated at 37° C. for 72 hours from seeding. The MTS solution is added (as for the T0 plate) and read four hours later. In order to analyze the data, the average value of media alone (background) is subtracted from each experimental well and the triplicate values are averaged for each compound dilution. The following formulas are used to calculate percent growth.
The “% Growth” is plotted against compound concentration and used to calculate IC50s employing the user-defined spline function in Microsoft Excel. This function uses linear regression between data points to predict the concentration of compounds at 50% inhibition. IC50s are used to determine the dose range for each compound and the resultant combinations.
(§4) Using the CalcuSyn program, the Combination Index (CI) is determined by the isobologram equation CI=(D)1/(Dx)1+(D)2/(Dx)2. […]

The test system of data set [4] is HCT116 cells. Kind of data set: Apoptosis in HCT116 cells. In kind it is cell-based, human. As to conditions: single agent, sub micromolar levels, 48 to 72 hours of exposure.
Data set [5] concerns MDA-M B-435P breast carcinoma xenograft. Description: MDA-MB-435P breast carcinoma xenograft model. In kind it is in vivo. Conditions: MDA-MB-435P breast xenograft; single daily intravenous doses 10 to 100 mg/kg.
Data set [6] relates to HCT116 cells. Kind of data set: MTS monolayer proliferation assay, drug combinations analysed with CalcuSyn. In kind it is cell-based, human.
From the text: as §1
Two cell lines, the HCT116 human colon carcinoma cells and MDA-MB-435P, a hormone independent breast carcinoma cell line, are chosen based on their sensitivity to HDAI. Chemotherapeutic agents are paired with the cell lines based on their clinical relevance. […]
Experiments are done using five-point or six-point drug titrations in 96-well tissue culture plates, with the top row left empty. […] The plate is incubated at 37° C. for 4 hours and the OD is measured on a Molecular Devices Thermomax at 490 nm using the Softmax program. […]
as §3, §4

Data set [7] concerns A549 lung carcinoma xenograft. Description: A549 lung carcinoma xenograft model. As to conditions: single daily intravenous doses 10 to 100 mg/kg. In kind it is in vivo.
Data set [8] has as its system histone acetylation (intracellular HDA). Kind of data set: Histone acetylation in cells treated in culture. In kind it is cell-based, human.
[9] abbreviates: HDAI added 24 hr prior to adriamycin.
Where [10] appears, read: adriamycin added 24 hr prior to HDAI.

As to `O=C(/C=C/c1ccc(CN(CCO)CCc2c[nH]c3ccccc23)cc1)NO` [N-hydroxy-3-[4-[[(2-hydroxyethyl)[2-(1H-indol-3-yl)ethyl]-amino]methyl]phenyl]-2E-2-propenamide], the p21 promoter activation result in the data set on p21 promoter is on record as “transcriptionally activates the p21 promoter”. Besides, in [1], the “cellular response of normal dermal fibroblasts” value was “predominantly undergo cell-cycle arrest”. Moreover, in data set [1], the “reduction of viability of normal dermal fibroblasts” value was “much higher concentrations and longer times of exposure are required”. Besides, the “acetylated histone H3 levels” value in [2] is reported as “increases”. The “acetylated histone H4 levels” value in data set [2] is “increases”. For the same molecule, the “concentration inhibiting cell growth” value in the data set on cell growth is recorded as “sub-micromolar concentrations”. The tumor growth result in data set [3], in data set [5] and in [7] was “reproducibly inhibits tumor growth” each time. Besides, the combined antiproliferative effect entry in the data set with tumor cell lines (all drug addition schedules) is “mainly additive effects; also recorded: concentration-dependent effects”; in the data set on tumor cell lines (high inhibitory concentrations (IC50)), “additive effects”; in the data set with tumor cell lines (low inhibitory concentrations (IC25)) it was “antagonistic effects”. In addition, the combination index in the data set on MDA-MB-435P cells (setting [9]) is listed as roughly 1; with MDA-MB-435P cells (setting [10]), less than 0.1; with MDA-MB-435P cells (simultaneous addition), roughly 1. Also, the “combined antiproliferative effect (isobologram / combination index)” value in the data set on MDA-MB-435P cells (setting [9]) is “additive effects”; in the data set on MDA-MB-435P cells (setting [10]) it was “synergistic effects; also recorded: strong synergy; also recorded: very strong synergy”; with MDA-MB-435P cells (simultaneous addition) it was “additive effects”; in the data set with HCT116 cells [6] (in combination with 5-FU) it was “mainly additive effects; also recorded: additive or weak antagonistic effects”. Besides, the apoptosis result in the data set with HCT116 cells [4] is listed as “produces apoptosis”. In addition, the “combined antiproliferative effect (combination index)” value in the data set with HCT116 cells [6] (in combination with camptothecin) was “mainly additive effects; also recorded: additive or weak antagonism; also recorded: additive or weak antagonistic effects”. In data set [8] (HCT116 cells treated in culture continuously for 3 to 24 hr), the “levels of histone acetylation” value is listed as “Increased levels of histone acetylation”. The histone acetylation result in data set [8] (single agent, sub-micromolar concentrations, cells not given) is “increases histone acetylation”.
